According to US20090016991A1, “Rxr Antagonist Treatment Against Multiple Sclerosis” (priority 2004, published 2009):
“Also recorded” adds a separate entry of the source.

Assays:
synovial fibroblasts = experiment: In vitro cartilage degradation by RA synovial fibroblasts (sGAG release); type: cell-based, human; conditions: for Release of sGAG: 14 days
Description: (§1) Methods: The effect of RXR antagonists on the activity of synovial fibroblasts, dependent on their state of activation, i.e. modified by a concomitant stimulation by the inflammatory cytokine Interleukin-1β (IL-1β), was determined. Furthermore, it was determined whether this was accompanied by a modulation in the accumulation of the mRNA encoding catabolic enzyme matrix metalloproteinase-1 (MMP-1), responsible for degradation of human cartilage and consequently joint destruction in man. Adherent synovial fluid cells taken from a patient with RA were used after 5 passages in an in vitro assay for cartilage destruction. The cells incubated in flasks coated with 0.1% (0.1 g/100 ml) human cartilage powder were fixed using Matrigel® (BD Biosciences, Becton, Dickinson & Co., Boston, Mass., USA). The release of sulphated glycosaminoglycan (sGAG) into the culture medium was monitored by a commercial colorimetric test according to a method described by S. Björnsson, see Anal. Biochem. 256, 229-237 (1998) using an alcian blue dot plot analysis, and the accumulation of mRNA encoding MMP-1 was quantified by real time PCR (TaqMan® (Roche Diagnostics, Basle, Switzerland)).
The retinoid agonists all-trans retinoic acid and 9-cis retinoic acid, both physiological metabolites of vitamin A, as well as the RXR antagonist compound A, diluted first in ethanol, and then diluted with vehicle or medium to the desired dose/concentration were tested in a time course (0-35 days for the in vitro assay, 0-48 hours for MMP-1 mRNA, see tables 7, 8 and 10) and dose-dependent (10^−7 to 10^−9 M, see tables 5, 6 and 9). This was conducted in the presence or absence of IL-1β (100 pg/ml).

MMP-1 mRNA = MMP-1 mRNA accumulation in synovial fibroblasts (real time PCR); type: cell-based, human
Description: as §1, with “Switzerland)). […] This was conducted in the presence or absence of IL-1β (100 pg/ml).” for “Switzerland)).”

MMP-9 = MMP-9 protein expression in human PBMC (zymography and ELISA); type: cell-based; conditions: for MMP-9 Inhibition of expression: vs vehicle control (0%)
Excerpt: For details on the method see: (A) Effect of RXR antagonists on expression of MMP-9 protein in human peripheral blood mononuclear cells (PBMC) in vitro, Leppert D et al, J Immunol 1995, 154:4379-4389; (B) Leppert D et al, Ann Neurol 1996, 40: 846-852; (C) Leppert D et al, Brain 1998, 121, 2327-2334; (D) Lindberg R et al, Brain 2001, 124: 1743-1753; (E) Gilli F et al, Brain 2004, 127: 1-10, which are incorporated by reference herein, especially with regard to the method.
Method: Fresh human peripheral blood mononuclear cells (PBMC) were prepared and expanded by stimulation with PHA as described in Leppert D et al, Ann Neurol 1996; 40: 846-852. 1×10^6 cells were pretreated with the RXR antagonist compound A in concentrations of 10^−6 M, 10^−7 M and 10^−8 M for 18 hours. Vehicle was used as control.
In two different experiments, after pretreatment with compound A, PBMCs were stimulated for 24 hours with Interleukin-2 (IL-2) 50 U/ml in one group, or not stimulated with IL-2 in another group.
The effect of the mentioned concentrations of compound A was compared with vehicle controls in the IL-2 stimulated and in the non IL-2 stimulated cultures of PBMC. The expression of MMP-9 protein was determined by analysis with zymography and ELISA, see especially references (A) under “Zymographic analysis of conditioned medium (CM)” and (C) under “ELISA (enzyme linked immunosorbent assay) for MMP-9” mentioned above, respectively.

[1] = absence of IL-1β, 10^−7 M, vehicle control 48
[2] = absence of IL-1β, 10^−8 M, vehicle control 48
[3] = absence of IL-1β, 10^−8 M, day 7, control 23
[4] = absence of IL-1β, 10^−8 M, day 14, control 48
[5] = absence of IL-1β, 10^−8 M, day 21, control 84
[6] = absence of IL-1β, 10^−8 M, day 28, control 112
[7] = absence of IL-1β, 10^−8 M, day 35, control 117
[8] = absence of IL-1β, 10^−9 M, vehicle control 48
[9] = presence of 100 pg/ml IL-1β, 10^−7 M, vehicle control 173
[10] = presence of 100 pg/ml IL-1β, 10^−8 M, vehicle control 173
[11] = presence of 100 pg/ml IL-1β, 10^−8 M, day 7, control 86
[12] = presence of 100 pg/ml IL-1β, 10^−8 M, day 14, control 173
[13] = presence of 100 pg/ml IL-1β, 10^−8 M, day 21, control 212
[14] = presence of 100 pg/ml IL-1β, 10^−8 M, day 28, control 249
[15] = presence of 100 pg/ml IL-1β, 10^−8 M, day 35, control 271
[16] = presence of 100 pg/ml IL-1β, 10^−9 M, vehicle control 173
[17] = 10^−7 M, after 24 hours, vehicle control 1
[18] = 10^−8 M, 12 hours, control 1.13
[19] = 10^−8 M, 48 hours, control 1.09
[20] = 10^−8 M, after 24 hours, vehicle control 1
[21] = 10^−9 M, after 24 hours, vehicle control 1

| Structure (SMILES) | Release of sGAG (synovial fibroblasts; [1]) [µg/mL] | Release of sGAG (synovial fibroblasts; [2]) [µg/mL] | Cumulative sGAG release (synovial fibroblasts; [3]) [µg/mL] | Cumulative sGAG release (synovial fibroblasts; [4]) [µg/mL] | Cumulative sGAG release (synovial fibroblasts; [5]) [µg/mL] | Cumulative sGAG release (synovial fibroblasts; [6]) [µg/mL] | Cumulative sGAG release (synovial fibroblasts; [7]) [µg/mL] | Release of sGAG (synovial fibroblasts; [8]) [µg/mL] | Effect on cartilage destruction in vitro (basal activity of synovial fibroblasts) (synovial fibroblasts; absence of IL-1β, in words) | Release of sGAG (synovial fibroblasts; [9]) [µg/mL] | Release of sGAG (synovial fibroblasts; [10]) [µg/mL] | Cumulative sGAG release (synovial fibroblasts; [11]) [µg/mL] | Cumulative sGAG release (synovial fibroblasts; [12]) [µg/mL] | Cumulative sGAG release (synovial fibroblasts; [13]) [µg/mL] | Cumulative sGAG release (synovial fibroblasts; [14]) [µg/mL] | Cumulative sGAG release (synovial fibroblasts; [15]) [µg/mL] | Release of sGAG (synovial fibroblasts; [16]) [µg/mL] | MMP-1 mRNA (fold increase of baseline value) (MMP-1 mRNA; [17]) [relative units] | MMP-1 mRNA (fold increase of baseline value) (MMP-1 mRNA; 10^−8 M, 0 hours) [relative units] | MMP-1 mRNA (fold increase of baseline value) (MMP-1 mRNA; 10^−8 M, 2 hours) [relative units] | also measured |
| --- | --- | --- | --- | --- | --- | --- | --- | --- | --- | --- | --- | --- | --- | --- | --- | --- | --- | --- | --- | --- | --- |
| CC1=C(/C=C/C(C)=C\C=C\C(C)=C\C(=O)O)C(C)(C)CCC1 [9-cis RA, 9-cis retinoic acid, reference compound] | 189 | 107 | 44 | 107 | 206 | 253 | 292 | 64 | increased cartilage destruction in vitro in a dose-dependent manner | 221 | 189 | 68 | 189 | 330 | 407 | 441 | 204 | 2.60 | 1 | 0.98 | Effect on cartilage destruction in vitro, time course (synovial fibroblasts; presence and absence of IL-1β, in words): markedly increased cartilage destruction; MMP-1 mRNA (fold increase of baseline value) (MMP-1 mRNA; 10^−8 M, 6 hours): 1.31 relative units; MMP-1 mRNA (fold increase of baseline value) (MMP-1 mRNA; [18]): 3.39 relative units; MMP-1 mRNA (fold increase of baseline value) (MMP-1 mRNA; 10^−8 M, 24 hours): 3.79 relative units; MMP-1 mRNA (fold increase of baseline value) (MMP-1 mRNA; [19]): 1.47 relative units; MMP-1 mRNA (fold increase of baseline value) (MMP-1 mRNA; [20]): 3.39 relative units; MMP-1 mRNA (fold increase of baseline value) (MMP-1 mRNA; [21]): 1.54 relative units |
| CCCCOc1c(\C(C)=C/C=C/C(C)=C/C(=O)O)cc(C(C)(C)C)cc1C(C)(C)C [compound A, (2E,4E,6Z)-7-[2-butoxy-3,5-bis(1,1-dimethylethyl)phenyl]-3-methyl-2,4,6-octatrienoic acid] | 39 | 57 | 44 | 57 | 57 | 39 | 34 | 46 | no effect | 41 | 89 | 67 | 89 | 89 | 173 | 56 | 144 | 0.68 | 1 | 1.13 | Effect on production, release and/or activity (expression) of MMP-9 (MMP-9; PBMC, IL-2 stimulated and not stimulated, ELISA and zymography, in words): very strong suppressive effect; also recorded: marked suppressive or inhibitory effect; MMP-9 Protein (total protein in the supernatant) (MMP-9; PBMCs not stimulated with IL-2, 10^−6 M, 18 h pretreatment): 33 ng/mL; MMP-9 Inhibition of expression (MMP-9; PBMCs not stimulated with IL-2, 10^−6 M): 53%; MMP-9 Protein (total protein in the supernatant) (MMP-9; PBMCs not stimulated with IL-2, 10^−7 M, 18 h pretreatment): 43 ng/mL; MMP-9 Inhibition of expression (MMP-9; PBMCs not stimulated with IL-2, 10^−7 M): 39%; MMP-9 Protein (total protein in the supernatant) (MMP-9; PBMCs not stimulated with IL-2, 10^−8 M, 18 h pretreatment): 51 ng/mL; MMP-9 Inhibition of expression (MMP-9; PBMCs not stimulated with IL-2, 10^−8 M): 28%; MMP-9 Protein (total protein in the supernatant) (MMP-9; PBMCs stimulated with IL-2 50 U/ml 24 h, 10^−6 M): 29 ng/mL; MMP-9 Protein (total protein in the supernatant) (MMP-9; PBMCs stimulated with IL-2 50 U/ml 24 h, 10^−7 M): 41 ng/mL; MMP-9 Protein (total protein in the supernatant) (MMP-9; PBMCs stimulated with IL-2 50 U/ml 24 h, 10^−8 M): 40 ng/mL; MMP-9 Inhibition of expression (MMP-9; PBMCs stimulated with IL-2, 10^−6 M): 52%; MMP-9 Inhibition of expression (MMP-9; PBMCs stimulated with IL-2, 10^−7 M): 33%; MMP-9 Inhibition of expression (MMP-9; PBMCs stimulated with IL-2, 10^−8 M): 34%; Effect on IL-1β dependent cartilage destruction (sGAG) (synovial fibroblasts; presence of IL-1β, in words): markedly inhibited; MMP-1 mRNA (fold increase of baseline value) (MMP-1 mRNA; 10^−8 M, 6 hours): 0.81 relative units; MMP-1 mRNA (fold increase of baseline value) (MMP-1 mRNA; [18]): 1.12 relative units; MMP-1 mRNA (fold increase of baseline value) (MMP-1 mRNA; 10^−8 M, 24 hours): 0.87 relative units; MMP-1 mRNA (fold increase of baseline value) (MMP-1 mRNA; [19]): 0.83 relative units; MMP-1 mRNA (fold increase of baseline value) (MMP-1 mRNA; [20]): 1.12 relative units; MMP-1 mRNA (fold increase of baseline value) (MMP-1 mRNA; [21]): 1.05 relative units |
